These results are taken from patent US20250163057A1, “DCN-1 MODULATING COMPOUNDS AND METHODS OF USE THEREOF” (Cellarity, Inc., priority 2023, published 2025).

The subject of assay [1] is Cullin-3 (CUL3) neddylation. Description: AlphaLISA assay for Cullin-3 (CUL3) neddylation in TF 1 cells. Type of assay: cell-based. The following applies: 3 hours treatment. The essentials:
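TF 1 cells in unsupplemented IMDM treated with compound concentrations for 3 h, then lysed. CUL3 neddylation detected by AlphaLISA (biotinylated anti-NEDD8, anti-CUL3 acceptor beads overnight, streptavidin donor beads 1 h); normalized to vehicle (0%) and 1 μM DI-1548 (100%), IC50 from Hill fits.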

The subject of assay [2] is fetal hemoglobin protein. Description: HbF HPLC Cell Culture Assay. Type of assay: cell-based. The settings on record: for EC50: 336 h, HbF induction, Day 14 of culture; for Hemoglobin HPLC Ymax obs (%): relative to a control compound. How it is done: A Cell Culture Assay was performed to evaluate the ability of compounds to induce fetal hemoglobin in a cell culture. The amount fetal hemoglobin protein induced was measured by HPLC.
Cell culture began on Day −4 (thaw day). Thaw buffer was prepared by sterile filtering 6 mL of Human Serum Albumin and 144 mL of PBS to make sterile 1% I/PBS. Cells were removed from liquid nitrogen storage and mostly thawed in a 37° C. water bath. Once the ice in the cryovials was melted, cells were transferred quickly into a 50 mL conical tube. Cryovial was rinsed once with thaw buffer and buffer was transferred over to the conical tube as well. Next, doubling volumes of thaw buffer was added to the conical and gently swirled for ˜30 seconds to one minute (for example: 2 mL was added and swirled, then 4 mL, then 8 mL, and so on) until the volume in the conical is 32 mL. Cells and buffer were centrifuged at 300G for 8 minutes, and the supernatant was aspirated. Another 32 mL of thaw buffer was added slowly, swirling the tube. The tube was again centrifuged at 300G for 8 minutes and the supernatant was aspirated. Cells were counted by resuspending in 1 mL of expansion media and counting with AOPI to determine the concentration of cells/mL.
On day 2, Passage & Treatment Day, each cell culture well was counted. Next fresh CD34 Expansion Media was made which contained StemSpan SFEM, CC100 and TPO all from StemCell technologies. Appropriate volume of cells was collected, centrifuged at 300 g and resuspended in fresh media. Cells were plated in treatment format at a density of 200,000 cells/ml, 25,000 cells/well. Finally, they were treated with test compounds as well as positive and negative controls.
On Days 0, 3 & 5 the same process was carried out. First, each cell culture well was counted. Next Phase 1 Erythroid Differentiation Media was freshly made, which contained StemSpan SFEM, 2.5 U/ml EPO, 0.5 mg/ml Holo-TF, 1× Glutamax, 5 μl/ml chemically defined lipid mixture, 10 ng/ml insulin, 50 ng/ml SCF, 10 ng/ml IL-3. Appropriate volume of cells was collected, centrifuged at 300 g and resuspended in fresh media. Cells should now be in fresh wells at a density of 100,000 cells/ml. 60,000 cells, 60,000 cells and 100,000 cells for days 0, 3, 5 respectively. Finally, fresh compound was added to each well at each timepoint (Days 0, 3 & 5).
On Day 7 media and cell culture density changes. Each cell culture well was counted. Next, Phase 2 Erythroid Differentiation Media was freshly made, which contains StemSpan SFEM, 2.5 U/ml EPO, 0.5 mg/ml Holo-TF, 1× Glutamax, 5 μl/ml chemically defined lipid mixture, 10 ng/ml insulin, 50 ng/ml SCF. Appropriate volume of cells was collected, centrifuged at 300 g and resuspended in fresh media. Cells were plated in fresh wells at a density of 500,000 cells/ml, 300,000 cells/well. Finally, fresh compound was added to each well at Day 7 timepoint.
On Day 10 media formulation is once again changed. Each cell culture well was counted. Fresh Phase 3 Erythroid Differentiation Media was made which contains StemSpan SFEM, 2.5 U/ml EPO, 0.5 mg/ml Holo-TF, 1× Glutamax, 5 μl/ml chemically defined lipid mixture, 10 ng/ml insulin. Appropriate volume of cells was collected, centrifuged at 300 g and resuspended in fresh media. Cells were plated in fresh wells at a density of 500,000 cells/ml, 500,000 cells/well. Finally, fresh compound was added to each well at Day 10 timepoint.
On Day 12 the cell density is once again changed. Each cell culture well was counted. Fresh Phase 3 Erythroid Differentiation Media was made. Appropriate volume of cells was collected, centrifuged at 300 g and resuspended in fresh media. Cells were plated in fresh wells at a density of 1,000,000 cells/ml, 1,000,000 cells/well. Finally fresh compound was added to each well.
Day 14 (18th day of experiment) refers to the terminal day of culture. Each cell culture well was counted. Next between 150K and 650K cells were placed in a uniquely labeled 1.5 ml standard tube. […]

Assay [3] deals with DCN1 (DCUND1) protein PONY domain (Homo sapiens (Human), UniProt Q96GG9). Description: TR-FRET assay, DCN1 binding with FAM-labeled probe. The essentials:
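TR-FRET ratio (Tb-DCN1 to FAM-probe) read at 1, 5 and 24 hrs after compound addition. Protein: recombinant PONY domain from E. coli, biotinylated and coupled to streptavidin terbium. Either 5 nM DCN1 with 20 nM FAM-probe, or 0.31 nM DCN1 with 100 nM FAM-labelled plus 800 nM unlabelled probe.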
A general note: In TR-FRET formats the signal depends on donor and acceptor labels being close together.

For assay [4], the target named is DCN1 protein (Homo sapiens (Human), UniProt Q96GG9). Description: Intact Protein MS Analysis with the RapidFire-TOF System (covalent adduct formation). Type of assay: binding. The settings on record: MS Emax; 400 nM DCN1, 3 hours at room temperature. The essentials:
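Tag-cleaved human DCN1 (400 nM) expressed in E. coli, in 25 mM Tris-HCl, 200 mM NaCl, 1 mM DTT, was incubated with 11 compound concentrations for 3 h at room temperature and quenched with 0.2% formic acid. Intact-protein Q-TOF MS with deconvolution detected the compound adduct mass.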

Where [5] appears, read: 24 hr after treatment with compound, read-out: TR FRET IC50 24 hr.
The mark [6] stands for this setting: TR FRET IC50 1 hr (nM), 1 hr after treatment with compound.

Read-outs that look alike come from different tables or passages of the source. Some results are limits rather than exact numbers.

Sequence of DCN1 protein (Q96GG9 whole entry): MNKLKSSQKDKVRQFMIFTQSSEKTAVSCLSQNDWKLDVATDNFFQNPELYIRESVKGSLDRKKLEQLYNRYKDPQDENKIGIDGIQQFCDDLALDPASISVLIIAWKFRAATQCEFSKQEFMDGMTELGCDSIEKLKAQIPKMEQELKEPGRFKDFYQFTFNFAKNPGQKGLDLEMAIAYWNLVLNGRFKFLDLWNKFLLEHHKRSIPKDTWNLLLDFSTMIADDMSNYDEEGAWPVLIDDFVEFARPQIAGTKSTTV
Sequence of DCN1 (DCUND1) protein PONY domain (Q96GG9 60-248): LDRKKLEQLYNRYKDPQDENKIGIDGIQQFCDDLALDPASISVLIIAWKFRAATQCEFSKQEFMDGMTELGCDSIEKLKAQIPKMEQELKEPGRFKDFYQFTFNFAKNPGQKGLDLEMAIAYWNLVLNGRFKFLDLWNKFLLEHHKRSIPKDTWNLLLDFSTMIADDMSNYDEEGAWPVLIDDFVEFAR

Take `CCN1C(=O)[C@@H](NC(=O)c2cccc(C(F)(F)F)c2)C(c2ccc(F)cc2)c2c(C(=O)N(CC#N)C3COC3)nn(-c3ccccc3)c21` (mixture of isomers) [Compound I-285]: the 50% inhibitory concentration (IC50) – broadly, the concentration that inhibits the measured activity by half – in assay [1] (Homo sapiens, TF-1, 3 h) was at most 100 nM; in assay [3] (setting [5]) it was at most 200 nM; in assay [3] (read-out: TR FRET IC50 1 hr, 1 hr after treatment with compound), at most 200 nM. Also, the EC50 (usually the concentration giving half of the maximal effect) in assay [2] is at most 50 nM. Moreover, in assay [2], the “Hemoglobin HPLC Ymax obs (%)” value was “++ (Hemoglobin HPLC Ymax greater than 65.0 and less than or equal to 100.0)”. Further, the “% Adduct Formation” value in assay [4] is “+++ (MS Emax % adduct formation greater than 80.0 and less than or equal to 100.0)”.
On to `CCN1C(=O)[C@@H](NC(=O)c2cccc(C(F)(F)F)c2)[C@@H](c2ccc(F)cc2)c2c(C(=O)N(C)CC#N)nn(-c3ccccc3)c21` (racemic) [Compound I-5, rac-(4R,5R)—N-(cyanomethyl)-7-ethyl-4-(4-fluorophenyl)-N-methyl-6-oxo-1-phenyl-5-(3-(trifluoromethyl)benzamido)-4,5,6,7-tetrahydro-1H-pyrazolo[3,4-b]pyridine-3-carboxamide], for which the half-inhibitory concentration (IC50) in assay [1] (Homo sapiens, TF-1, 3 h) is at most 100 nM; in assay [3] (setting [5]), at most 200 nM; in assay [3] (setting [6]), at most 200 nM. Besides, the EC50 in assay [2] was in the range of 50 to 200 nM. Also, the “Hemoglobin HPLC Ymax obs (%)” value in assay [2] is “++ (Hemoglobin HPLC Ymax greater than 65.0 and less than or equal to 100.0)”. Moreover, in assay [4], the “% Adduct Formation” value is “+++ (MS Emax % adduct formation greater than 80.0 and less than or equal to 100.0)”.
Regarding `CCN1C(=O)[C@@H](NC(=O)c2cccc(C(F)(F)F)c2)[C@@H](c2ccc(F)cc2)c2c(C(=O)N3CCC[C@H]3C#N)nn(-c3ccccc3)c21` (racemic) [Compound I-34], the 50% inhibitory concentration (IC50) in assay [1] (Homo sapiens, TF-1, 3 h) was at most 100 nM; in assay [3] (setting [5]), at most 200 nM; in assay [3] (setting [6]), at most 200 nM. This molecule also returned an EC50 in assay [2] of over 200 nM.
For `CCN1C(=O)[C@@H](NC(=O)c2cccc(C(F)(F)F)c2)[C@@H](c2ccc(F)cc2)c2c(C(=O)N(C)[C@@H](C#N)CCN(C)C)nn(-c3ccccc3)c21` (relative stereo) [Compound I-304, (4S,5S)—N-[(1R*)-1-cyano-3-(dimethylamino)propyl]-7-ethyl-4-(4-fluorophenyl)-N-methyl-6-oxo-1-phenyl-5-[3-(trifluoromethyl)benzamido]-4H,5H-pyrazolo[3,4-b]pyridine-3-carboxamide], the “Hemoglobin HPLC Ymax obs (%)” value in assay [2] is “++ (Hemoglobin HPLC Ymax greater than 65.0 and less than or equal to 100.0)”. In addition, the “% Adduct Formation” value in assay [4] was “+++ (MS Emax % adduct formation greater than 80.0 and less than or equal to 100.0)”.
With `CCN1C(=O)[C@@H](NC(=O)c2cccc(C(F)(F)F)c2)[C@@H](c2ccc(F)cc2)c2c(C(=O)N(C)[C@@H](C#N)C3COC3)nn(-c3ccccc3)c21` (single isomer, unassigned) [Compound I-294], in assay [1], the half-inhibitory concentration (IC50) was at most 100 nM. In addition, in assay [2], the 50% effective concentration (EC50) is 50 to 200 nM; the “Hemoglobin HPLC Ymax obs (%)” value was “++ (Hemoglobin HPLC Ymax greater than 65.0 and less than or equal to 100.0)”. In addition, the “% Adduct Formation” value in assay [4] is “+++ (MS Emax % adduct formation greater than 80.0 and less than or equal to 100.0)”.
`CCN1C(=O)[C@@H](NC(=O)c2cccc(C(F)(F)F)c2)[C@@H](c2ccc(F)cc2)c2c(C(=O)N(C)[C@@H](C#N)CCN(C)C)nn(-c3ccccc3)c21` (single isomer, unassigned) [Compound I-304, (4S,5S)—N-[(1R*)-1-cyano-3-(dimethylamino)propyl]-7-ethyl-4-(4-fluorophenyl)-N-methyl-6-oxo-1-phenyl-5-[3-(trifluoromethyl)benzamido]-4H,5H-pyrazolo[3,4-b]pyridine-3-carboxamide] yielded an IC50 in assay [1] (Homo sapiens, TF-1, 3 h) of at most 100 nM. The molecule also showed an EC50 in assay [2] of at most 50 nM.
Consider `CCN1C(=O)[C@@H](NC(=O)c2cccc(C(F)(F)F)c2)[C@@H](c2ccc(F)cc2)c2c(C(=O)N3CCNC[C@@H]3C#N)nn(-c3ccccc3)c21` [Compound I-281], for which, in assay [2], the EC50 was at most 50 nM; the “Hemoglobin HPLC Ymax obs (%)” value is “++ (Hemoglobin HPLC Ymax greater than 65.0 and less than or equal to 100.0)”.
